Reference: PMC10693631, “A multi-reservoir extruder for time-resolved serial protein crystallography and compound screening at X-ray free-electron lasers” (Nature Communications, 2023)

Molecular target: T1, Krokinobacter eikastus rhodopsin 2 (KR2) (Dokdonia eikasta, UniProt N0DKS8)
T1 construct: gene NaR; light-driven sodium pump, membrane protein crystallised in monoolein LCP; expression and purification only cited
T1 sequence (N0DKS8 1-280): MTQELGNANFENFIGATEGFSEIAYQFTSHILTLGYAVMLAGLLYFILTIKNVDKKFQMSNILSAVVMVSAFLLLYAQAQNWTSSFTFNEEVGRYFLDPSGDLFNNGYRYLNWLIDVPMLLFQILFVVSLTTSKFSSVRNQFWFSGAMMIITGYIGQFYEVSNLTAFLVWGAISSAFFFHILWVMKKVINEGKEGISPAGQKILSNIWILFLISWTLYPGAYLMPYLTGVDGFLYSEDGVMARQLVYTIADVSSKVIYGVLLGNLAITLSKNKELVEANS
Assay: time-resolved serial femtosecond crystallography (XFEL, room temperature), dark state
Assay type: binding
Details: covalent, light state 1 us after 575 nm pulse deposited as 8CL8, crystals shifted to pH 9.0, 150 mM NaCl

CC1=C(/C=C/C(C)=C/C=C/C(C)=C/C=O)C(C)(C)CCC1 [retinal]
time-resolved serial femtosecond crystallography (XFEL, room temperature), dark: examining structural changes after photoactivation of its retinal chromophore
